These results are taken from US6794402B2, “Bicyclic cyclohexylamines and their use as NMDA receptor antagonists” (Warner-Lambert Company, priority 2000, dated 2004).

The target of series [1] is T1, [3H]ifenprodil binding site, rat forebrain membranes (Rattus norvegicus, UniProt P35439+Q00960).
T1 construct: membrane fraction was prepared from frozen adult rat forebrains; tissue Zivic-Miller Laboratories, Inc; host or cells: adult rat forebrain, washed buffy coat membrane fraction
The series is described as follows: [3H]Ifenprodil binding assay. The following applies: 4 nM [3H]-ifenprodil, 2 hours at room temperature. Here is the method: All buffers and reagents used in assay incubations or to dissolve drugs were prepared using water purified through a Milli-Q reverse osmosis system (Millipore Corp, Bedford, Mass.) and treated with UV emissions. Prior to use in the assays, buffers were further filtered through a sterile Corning filtration unit (Corning Glass Works, Corning, N.Y.) containing a 0.2-micron filter. Buffer used to rinse the membranes on the assay filters was prepared with purified water, but was not refiltered and was stored no longer than 5 days. Stock solutions of the drugs (usually 10 mM) were dissolved in 20 mM HEPES-KOH buffer pH 7.4 (assay buffer) with the addition of 1 to 5 μL of glacial AcOH, if needed to keep them in solution. For eliprodil the stock solution was buffered with the addition of 10% DMSO. All subsequent dilutions from stock were made in buffer.
An extensively washed buffy coat membrane fraction was prepared from frozen adult rat forebrains (Zivic-Miller Laboratories, Inc., Zelienople, Pa.) as described previously (Coughenour L. L., Cordon, J. J., J. Pharmacol. Exp. Ther., 1997;280:584-592) and stored at −80° C. On the day of the assay, pellets were resuspended in 35 mL of assay buffer at pH 7.4 using a Polytron setting 6. After incubation at 37° C. for 30 minutes in a shaking water bath, the homogenate was centrifuged 40,000×g for 10 minutes at 4° C. The pellets were resuspended in fresh buffer and centrifuged 3 more times before final suspension for use in the assay.
[^3H]Ifenprodil Binding. Triplicate incubations were carried out in a volume of 0.5 mL in 1.3 mL polypropylene tubes (Marsh Biomedical Products Inc., Rochester, N.Y.) for 2 hours at room temperature. Incubations contained test agents, membranes (100-200 μg protein) and 4 nM[^3H]-ifenprodil in 20 mM HEPES-KOH buffer, pH 7.4 (assay buffer). Assays were started by addition of the membranes. Bound radioligand was separated by filtration under reduced pressure using a Tomtec Mach II, 96-well cell harvester (Tomtec Inc., Orange, Colo.). Filtration was through Whatman GF/B glass fiber filters (Whatman Ltd, Maidstone, England), which had been soaked for at least 15 minutes in 0.3% polyethylenimine and allowed to air dry. The filters were rinsed with 3 mL of ice cold assay buffer within 6 seconds. Air was allowed to pass through the filters for an additional 10 seconds to remove residual moisture. The filter mat was supported on a cold (−20° C.) teflon support, and filters from individual wells were separated and placed in Mini Poly-Q vials (Beckman Instruments Inc., Fullerton, Calif.) and filled with 4 mL of scintillation cocktail (Beckman Ready Protein^+). Radioactivity retained on the filter was determined by liquid scintillation spectrophotometry. Nonspecific binding was defined as the binding in the presence of 1 mM ifenprodil. Specific binding was 90%.
Data analysis. Binding curves were statistically analyzed for a best one or two site competition fit using GraphPad Prism software (GraphPad Software Inc., San Diego, Calif.). The normalized data was fit by nonweighted nonlinear regression to either [formula]
Control data was entered as 100%, and no parameters were constrained. Inhibition curves were compared by ANOVA with post test comparisons of the logIC50 using Dunnett's multiple comparisons post test or Student's nonpaired, two-tailed t-test (GraphPad InStat software).

The test system of series [2] is 6-Hydroxydopamine-lesioned rats. The series can be described thus: 6-OHDA lesioned rat assay. It counts as in vivo. As to conditions: for 6-OHDA MED: minimum effective dose to potentiate contraversive rotation induced by L-DOPA methyl ester 10 mg/kg SC, 6-hour period; for 6-OHDA active/inactive at the given dose: statistically significant increase in contraversive rotations vs L-DOPA only. Here is the method:
6-Hydroxydopamine-lesioned rats were used (see Ungerstedt U., Arbuthnott G. W., Quantitative recording of rotational behavior in rats after 6-hydroxy-dopamine lesions of the nigrostraiatal dopamine system. Brain Res., 1971;24(3):485-93). Adult male Sprague-Dawley rats were anesthetized with chloral hydrate and unilateral lesions of the nigrostriatal dopamine system were accomplished by infusion of 8 μg of 6-hydroxydopamine HBr (6-OHDA) into the right medial forebrain bundle. Rats were pretreated 30 minutes before surgery with desipramine HCl 25 mg/kg intraperitoneally (IP) to protect noradrenegic neurons, and pargyline 25 mg/kg IP to potentiate the effects of 6-OHDA. A minimum of 3 weeks after surgery, the rotational behavior induced by apomorphine HCL 50 μg/kg subcutaneously (SC) was assessed.
Rotational behavior was measured using an automatic rotometer system (Rotorat Rotational Activity System, MED Associates, Georgia, Vt.). Anti-parkinsonian activity was assessed as the ability of the compound to potentiate the contraversive rotation induced by L-DOPA methyl ester, 10 mg/kg SC, over a 6-hour period. Experiments were conducted using a crossover paradigm where each rat received either a vehicle plus L-DOPA, or the test compound plus L-DOPA, in randomized order. Rats were tested at 7-day intervals. In experiments in which the compound was tested orally, rats were food deprived for 16 hours. Statistical analysis between treatment groups were performed using a paired t-test. The results were reported in Table 1 as the minimum effective dose (MED) of compound (mg/kg) required to produce a statistically-significant increase in total contraversive rotations compared to rats receiving L-DOPA only.

A further series addresses NR1A/NR2B NMDA receptor (Rattus norvegicus, UniProt P35439+Q00960). The series is described as follows: Electrophysiological assay at NMDA receptor subunits expressed in Xenopus oocytes. It is filed as cell-based. The following applies: cloned rat NR1A/NR2B in Xenopus oocytes, two-electrode voltage clamp, glutamate 100 μM + glycine 1-100 μM; read-out: NR1A/NR2B Oocyte IC50. The source says:
Preparation of RNA. cDNA clones encoding the NR1A, NR2A, NR2B, and NR2C rat NMDA receptor subtypes were used (see, Moriyoshi, supra., 1991; Kutsuwada et al., supra., 1992; Monyer et al., supra, 1992; Ikeda et al., FEBS Lett., 1992;313:34-38; Ishii et al., J. Biol. Chem., 1993;268:2836-2843 for details of these clones or their mouse homologs). The clones were transformed into appropriate host bacteria and plasmid preparations were made with conventional DNA purification techniques. A sample of each clone linearized by restriction enzyme digestion […] was synthesized with T3 RNA polymerase. The cRNA was diluted to 400 ng/μL and stored in 1-μL aliquots at −80° C. until injection.
The Xenopus oocyte expression system. Mature female Xenopus laevis were anaesthetized (20-40 minutes) using 0.15% 3-aminobenzoic acid ethyl ester (MS-222), and 2 to 4 ovarian lobes were surgically removed. Oocytes at developmental stages IV-VI (Dumont J. N., J. Morphol., 1972;136:153-180) were dissected from the ovary still surrounded by enveloping ovarian tissues. Follicle-enclosed oocytes were microinjected with 1:1 mixtures of NR1A:NR2A, 2B or 2C; injecting 1 to 10 ng of RNA encoding each receptor subunit. NR1A encoding RNA was injected alone at ˜20 ng. Oocytes were stored in Barth's medium containing (in mM): NaCl, 88; KCl, 1; CaCl2, 0.41; Ca (NO3)2, 0.33; MgSO4, 0.82; NaHCO3, 2.4; HEPES 5; pH 7.4, with 0.11 mg/mL gentamicin sulphate. While oocytes were still surrounded by enveloping ovarian tissues, the Barth's medium was supplemented with 0.1% bovine serum. Oocytes were defolliculated 1 to 2 days following injections by treatment with collagenase (0.5 mg/mL Sigma Type I for 0.5-1 hr)-(Miledi and Woodward, J. Phsyiol., (Lond) 1989;416:601-621) and subsequently stored in serum-free medium.
Electrical recordings were made using a conventional two-electrode voltage clamp (Dagan TEV-200) over periods ranging between 3 to 21 days following injection (Woodward et al., Mol. Pharmacol., 1992;41:89-103). Oocytes were placed in a 0.1-mL recording chamber continuously perfused (5 mL-15 mL min^−1) with frog Ringer's solution containing (in mM): NaCl, 115; KCL, 2; BaCl2, 1.8; HEPES, 5; and pH 7.4. Drugs were applied by bath perfusion. Using oocytes expressing different subunit combinations of NMDA receptor, NMDA currents were activated by co-application of glutamate (100 μM) and glycine (1-100 μM). Inhibitory potency of the novel antagonists was assessed on responses elicited by fixed concentrations of glutamate and glycine, by measuring reductions in current induced by progressively increasing concentrations of antagonist.
Concentration-inhibition curves were fit with Equation 1.
I/Icontrol=1/(1+([antagonist]/10−^pIC50)^n) Eq. 1
In which Icontrol is the current evoked by agonists alone, pIC50=−log IC50, IC50 is the concentration of antagonist that produced half maximal inhibition, and n is the slope factor (De Lean et al., Am. J. Physiol., 1978;235:E97-102). For incomplete curves, analysis by fitting was unreliable and IC50 values were calculated by simple regression over linear portions of the curves (Origin: Microcal Software).

Structures can show the parent of a compound that is named as a salt.

T1 sequence (Q00960 27-1482, other chains not shown): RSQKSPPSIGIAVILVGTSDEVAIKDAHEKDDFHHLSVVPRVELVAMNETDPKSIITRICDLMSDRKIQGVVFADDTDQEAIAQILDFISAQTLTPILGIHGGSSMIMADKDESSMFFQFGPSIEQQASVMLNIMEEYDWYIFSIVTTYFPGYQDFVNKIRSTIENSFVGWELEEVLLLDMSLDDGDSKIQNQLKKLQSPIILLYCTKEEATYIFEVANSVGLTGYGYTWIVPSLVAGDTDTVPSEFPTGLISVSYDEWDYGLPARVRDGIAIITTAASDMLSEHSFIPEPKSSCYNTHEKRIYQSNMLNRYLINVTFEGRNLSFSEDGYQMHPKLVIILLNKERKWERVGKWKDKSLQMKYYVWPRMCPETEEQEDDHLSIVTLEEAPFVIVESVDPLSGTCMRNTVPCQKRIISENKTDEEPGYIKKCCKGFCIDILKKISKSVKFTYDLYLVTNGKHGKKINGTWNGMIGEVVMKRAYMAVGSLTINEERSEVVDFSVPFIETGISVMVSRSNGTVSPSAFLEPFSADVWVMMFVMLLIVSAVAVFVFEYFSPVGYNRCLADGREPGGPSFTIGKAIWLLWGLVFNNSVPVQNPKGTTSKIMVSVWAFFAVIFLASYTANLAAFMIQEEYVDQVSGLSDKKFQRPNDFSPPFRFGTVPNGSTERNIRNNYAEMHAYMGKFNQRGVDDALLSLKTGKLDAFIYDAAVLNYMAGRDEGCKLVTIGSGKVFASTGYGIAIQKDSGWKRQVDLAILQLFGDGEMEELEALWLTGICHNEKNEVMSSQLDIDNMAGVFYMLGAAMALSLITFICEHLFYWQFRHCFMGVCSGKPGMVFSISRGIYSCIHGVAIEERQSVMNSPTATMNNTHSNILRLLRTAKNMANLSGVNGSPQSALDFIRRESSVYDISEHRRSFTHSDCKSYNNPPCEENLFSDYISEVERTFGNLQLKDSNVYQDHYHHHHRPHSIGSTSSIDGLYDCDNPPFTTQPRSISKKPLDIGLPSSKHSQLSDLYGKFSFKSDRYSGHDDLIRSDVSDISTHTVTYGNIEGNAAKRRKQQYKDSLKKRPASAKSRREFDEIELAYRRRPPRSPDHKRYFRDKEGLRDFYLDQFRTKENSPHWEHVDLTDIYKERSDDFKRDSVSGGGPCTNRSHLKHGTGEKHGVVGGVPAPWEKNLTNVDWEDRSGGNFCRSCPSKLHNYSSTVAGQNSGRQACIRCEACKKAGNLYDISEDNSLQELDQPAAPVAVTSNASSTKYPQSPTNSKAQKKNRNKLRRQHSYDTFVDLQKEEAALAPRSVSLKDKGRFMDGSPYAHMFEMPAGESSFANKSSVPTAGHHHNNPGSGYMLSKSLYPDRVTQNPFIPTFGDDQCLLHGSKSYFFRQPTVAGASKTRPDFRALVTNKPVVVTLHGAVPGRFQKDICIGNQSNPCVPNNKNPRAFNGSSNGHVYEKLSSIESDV
Sequence of NR1A/NR2B NMDA receptor (Q00960 27-1482, other chains not shown): as above

Consider `CN(C)c1ccc(CCCN(C)[C@H]2CC[C@H](c3ccc4[nH]c(=O)oc4c3)CC2)cc1` [Example 58, 6-(4-{[3(trans-4-Dimethylaminophenyl)propyl]methylamino}cyclohexyl)-3H-benzoxazol2-one], for which the melting point fell in the range of 182 to 184 °C. The IC50 in series [1] turned out to be 357 nM.

`CN(CCCc1ccccc1)[C@H]1CC[C@H](c2ccc3[nH]c(=O)oc3c2)CC1` [Example 17, 6-{trans-4-[Methyl(3-phenylpropyl)amino]cyclohexyl}-3H-benzoxazol-2-one] came in with a melting point of 58 to 62 °C. In series [1], this compound registered an IC50 of 10 nM. Also, in series [2], the “6-OHDA MED” value was 10 mg/kg and the “6-OHDA active/inactive at the given dose” value was “active”.

`O=c1[nH]c2ccc(C3=CCC(NCCCc4ccccc4)CC3)cc2o1` (stereo not shown) [Example 6, 6-[4-(3-Phenylpropylamino)cyclohex-1-enyl]-3H-benzoxazol-2-one] registered a melting point of 293 to 295 °C. In series [1], this compound came in with an IC50 of 9 nM.

`CN(CCOc1ccccc1)[C@H]1CC[C@H](c2ccc3[nH]c(=O)oc3c2)CC1` [Example 22, 6-{trans-4-[Methyl(2-phenoxyethyl)amino]cyclohexyl}-3H-benzoxazol-2-one] displayed an IC50 in series [1] of 53 nM. Moreover, in series [2], the “6-OHDA MED” value is on record as 10 mg/kg and the “6-OHDA active/inactive at the given dose” value is on record as “active”.

`CN(CCSc1ccc(F)cc1)[C@H]1CC[C@H](c2ccc3[nH]c(=O)oc3c2)CC1` [Example 20, 6-{trans-4-[2-(4-Fluorophenylsulfanylethyl)methylamino]cyclohexyl}-3H-benzoxazol-2-one] showed an IC50 in series [1] of 25 nM. Further, in series [2], the “6-OHDA MED” value worked out at 30 mg/kg and the “6-OHDA active/inactive at the given dose” value is “active”.

`Cc1ccc(CCCN(C)[C@H]2CC[C@H](c3ccc4[nH]c(=O)oc4c3)CC2)cc1` [Example 21, 6-{trans-4-[Methyl-3-(p-Tolylpropyl)amino]cyclohexyl}-3H-benzoxazol-2-one]: the IC50 in series [1] is 16 nM. Further, in series [2], the “6-OHDA MED” value is given as 10 mg/kg and the “6-OHDA active/inactive at the given dose” value is reported as “active”.

`CCN(CCCc1ccc(F)cc1)[C@H]1CC[C@H](c2ccc3[nH]c(=O)oc3c2)CC1` [Example 25, 6-(trans-4-{Ethyl-[3-(4-fluorophenyl)propyl]amino}cyclohexyl)-3H-benzoxazol-2-one]: in series [1], the IC50 amounted to 79 nM. In addition, in series [2], the “6-OHDA MED” value turned out to be 10 mg/kg and the “6-OHDA active/inactive at the given dose” value is on record as “active”.

`CC(CCN(C)[C@H]1CC[C@H](c2ccc3[nH]c(=O)oc3c2)CC1)c1ccccc1` (stereo partly drawn) [Example 37b, 6-[trans-4-(Methyl-3-phenylbutylamino)cyclohexyl]-3H-benzoxazol-2-one] yielded a melting point of 61 to 70 °C. Besides, the IC50 in series [1] is 32 nM.

For `CN(CCCc1ccc(C(F)(F)F)cc1)[C@H]1CC[C@H](c2ccc3[nH]c(=O)oc3c2)CC1` [Example 23, 6-{trans-4-[Methyl-3-(4-Trifluoromethylphenyl)propylamino]cyclohexyl}-3H-benzoxazol-2-one], the IC50 in series [1] came out at 38 nM. For the same compound, in series [2], the “6-OHDA MED” value is on record as 10 mg/kg and the “6-OHDA active/inactive at the given dose” value is “active”.

For `O=c1[nH]c2ccc([C@H]3CC[C@H](NCCSc4ccc(F)cc4)CC3)cc2o1` [Example 8, 6-{trans-4-[2-(4-Fluorophenylsulfanyl)ethylamino]cyclohexyl}-3H-benzoxazol-2-one], the IC50 on NR1A/NR2B NMDA receptor stood at 20 nM.

With `CCN([C@H]1CC[C@H](c2ccc3[nH]c(=O)oc3c2)CC1)[C@H](C)CCc1ccccc1` (as salt: HCl) [Example 27, 6-(trans-4-{Ethyl-[(R)-1-methyl-3-phenylpropyl]amino}cyclohexyl)-3H-benzoxazol-2-one], the melting point is 139 to 158 °C.

As for `O=c1[nH]c2ccc([C@H]3CC[C@H](NCCCc4ccc(F)cc4)CC3)cc2[nH]1` (as salt: HCl) [Example 62, 5-{trans-4-[3-(4-Fluorophenyl)propylamino]cyclohexyl}-1,3-dihydrobenzoimidazol-2-one], the melting point is 336 to 339 °C.
